According to patent US20120315654A1, “COMPOSITIONS AND METHODS FOR DETECTING CARDIOTOXICITY” (DUKE UNIVERSITY, priority 2011, published 2012):

Assays:
Cr transporter (CrT) = biological target: T1, Cr transporter (CrT) (Rattus norvegicus, UniProt P28570); assay: 14C-Cr transport in rat neonatal cardiomyocytes (RNCM) after DOX incubation; type: cell-based; conditions: 100 nmol/L DOX
T1 construct: measuring ^14C—Cr uptake in primary RNCMs; endogenous in cells; host or cells: primary rat neonatal cardiomyocytes (RNCM)
T1 sequence (P28570 1-635): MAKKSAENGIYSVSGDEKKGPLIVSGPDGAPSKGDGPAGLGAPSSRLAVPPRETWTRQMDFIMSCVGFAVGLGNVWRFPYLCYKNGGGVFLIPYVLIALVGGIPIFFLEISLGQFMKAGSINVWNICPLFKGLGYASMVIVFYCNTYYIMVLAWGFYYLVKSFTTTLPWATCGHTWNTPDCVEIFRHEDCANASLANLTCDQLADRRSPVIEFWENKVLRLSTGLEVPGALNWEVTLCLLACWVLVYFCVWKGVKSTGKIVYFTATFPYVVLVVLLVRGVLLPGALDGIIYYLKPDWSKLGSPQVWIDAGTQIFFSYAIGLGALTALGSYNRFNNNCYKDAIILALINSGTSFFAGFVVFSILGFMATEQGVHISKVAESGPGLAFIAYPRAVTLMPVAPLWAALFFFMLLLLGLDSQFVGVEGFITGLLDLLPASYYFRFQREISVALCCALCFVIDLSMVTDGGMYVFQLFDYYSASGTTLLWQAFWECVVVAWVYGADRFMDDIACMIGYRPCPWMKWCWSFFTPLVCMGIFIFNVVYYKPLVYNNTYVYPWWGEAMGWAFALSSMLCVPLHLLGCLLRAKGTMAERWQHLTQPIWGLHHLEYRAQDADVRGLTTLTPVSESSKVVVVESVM
Method: Cells were plated on tissue culture dishes pre-coated with gelatin/fibronectin and allowed to grow in M199 media (INVITROGEN, Carlsbad, Calif.) containing 2% serum before experimentation. All animals were treated according to protocols approved by Duke University's Institutional Animal Care and Use Committee. HL-1 cells (passages 50 to 75), were plated onto fibronectin/gelatin-coated plates and cultured in CLAYCOMB media (SIGMA, St. Louis, Mo.) supplemented with 10% fetal bovine serum, 100 units/ml penicillin, 100 μg/ml streptomycin, 0.1 mM norepinephrine, and 2 mmol/L L-glutamine, as described previously (White S. M., et al., Am J Physiol Heart Circ Physiol 286: H823-829, 2004). The cultures were maintained in a humidified atmosphere of 5% CO2 at 37° C.
Cr transport assays were performed after growth in control media for 0, 4, 12, 24 or 48 hrs.
Cells used for Cr transport assays were cultured in 24-well plates coated with fibronectin and gelatin. […]
For assays that measured Cr transport kinetics, the final Cr content in the uptake buffer ranged from 5 to 305 μmol/L. Uptake was terminated by aspiration of the radiolabeled solution, followed by 3 washes with ice-cold choline buffer. […] Cr transport was normalized to the protein concentration measured using the bicinchoninic acid (BCA) protein assay (PIERCE BIOTECHNOLOGY, Rockford, Ill.). […]

HL-1 cells [1] = assay: Caspase 3/7 apoptosis assay in HL-1 cells; type: cell-based, murine; conditions: HL-1, 100 nmol/L DOX, up to 48 hrs
Method: Apoptosis was measured using PROMEGA's CASPASE-GLO 3/7 ASSAY SYSTEM (PROMEGA). Briefly, attached cells in a single 24-well plate were washed 3 times with ice-cold PBS and resuspended in 500 μl of 1% TRITON-X100; 10% glycerol; 2 mmol/L EDTA; 137 mmol/L NaCl; and 20 mmol/L Tris, pH 8.0. A mixture of 25 μL of lysate and 25 μL of caspase 3/7-assay reagent was prepared, and sequential luminescent readings were taken every 15 min for 4 hrs. Peak signal readings were normalized to protein content and plotted.

RNCM = assay: LDH release cytotoxicity assay in RNCM; type: cell-based, rat
Method: Toxicity was assessed by quantifying the amount of lactate dehydrogenase (LDH) present in the culture media using PROMEGA's CYTOTOX96 NON-RADIOACTIVE ASSAY (PROMEGA, Madison, Wis.). Maximum cytotoxicity was determined by measuring the amount of LDH released in cells incubated with the kit's lysis buffer. The percentage of LDH released after DOX treatment was compared with that of controls.

[2] = cited from earlier work
HL-1 cells [3] = assay: Quantification of Cr and high-energy phosphates in HL-1 extracts by LC-MS/MS; conditions: HL-1, 100 nmol/L DOX, 24 hrs

SMILES: COc1cccc2c1C(=O)c1c(O)c3c(c(O)c1C2=O)C[C@@](O)(C(=O)CO)C[C@@H]3O[C@H]1C[C@H](N)[C@H](O)[C@H](C)O1 [DOX, Doxorubicin]
- Decrease in Cr uptake (Cr transporter (CrT); 32 hrs before the 36 hrs point (FIG. 1A)): 37%
- Cr transport (14C-Cr uptake) (Cr transporter (CrT); within 2-4 hrs of exposure, vs control media): decreased significantly
- Apoptosis (caspase 3/7 activation) (HL-1 cells [1]): No increase
- LDH release (RNCM; 50 nmol/L DOX, through 48 hrs): not significantly elevated
- Increase in LDH release compared with control (RNCM; 100 nmol/L DOX, 36 hrs): 7%
- Average steady-state concentration typically measured in patient plasma [2]: 100 nmol/L
- ADP (HL-1 cells [3]): 0.50 ± 0.07 μmols/mg prot
- AMP (HL-1 cells [3]): 0.26 ± 0.08 μmols/mg prot
- ATP (HL-1 cells [3]): 0.60 ± 0.15 μmols/mg prot
- Cr (HL-1 cells [3]): 23.01 ± 7.92 μmols/mg prot
- PCr (HL-1 cells [3]): 5.94 ± 0.12 μmols/mg prot
